Literature values, collected in patent US20130171237A1, “ARIPIPRAZOLE COMPOSITIONS AND METHODS FOR ITS TRANSDERMAL DELIVERY” (priority 2010, published 2013).

In the case of O=C1CCc2ccc(OCCCCN3CCN(c4cccc(Cl)c4Cl)CC3)cc2N1 [ARPZ, Aripiprazole], the solubility in water is given as “practically insoluble in water”.
